Assays:
[1] = target: T1, Solute carrier organic anion transporter family member 1B1 (Homo sapiens, UniProt Q9Y6L6); settings: chinese hamster, cho, 10 µM
T1 sequence (Q9Y6L6 whole entry): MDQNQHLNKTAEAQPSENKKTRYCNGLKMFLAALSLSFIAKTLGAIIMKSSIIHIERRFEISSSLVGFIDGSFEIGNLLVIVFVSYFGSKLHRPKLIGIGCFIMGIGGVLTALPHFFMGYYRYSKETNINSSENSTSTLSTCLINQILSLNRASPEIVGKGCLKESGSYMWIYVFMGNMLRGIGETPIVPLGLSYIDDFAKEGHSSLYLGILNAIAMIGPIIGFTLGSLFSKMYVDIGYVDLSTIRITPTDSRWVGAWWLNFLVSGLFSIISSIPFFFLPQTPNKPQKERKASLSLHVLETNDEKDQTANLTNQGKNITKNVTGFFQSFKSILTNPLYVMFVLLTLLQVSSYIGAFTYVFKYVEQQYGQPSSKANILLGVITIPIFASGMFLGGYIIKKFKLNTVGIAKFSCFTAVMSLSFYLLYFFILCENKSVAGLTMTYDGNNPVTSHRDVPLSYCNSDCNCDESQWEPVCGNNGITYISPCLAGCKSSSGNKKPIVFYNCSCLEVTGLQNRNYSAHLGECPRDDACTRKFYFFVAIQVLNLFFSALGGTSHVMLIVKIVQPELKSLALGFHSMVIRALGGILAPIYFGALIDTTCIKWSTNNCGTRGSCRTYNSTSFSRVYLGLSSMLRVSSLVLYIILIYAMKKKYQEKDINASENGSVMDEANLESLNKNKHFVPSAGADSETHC

[2] = target: T2, Solute carrier organic anion transporter family member 1B3 (Homo sapiens, UniProt Q9NPD5); settings: chinese hamster, cho, 10 µM
T2 sequence (Q9NPD5 whole entry): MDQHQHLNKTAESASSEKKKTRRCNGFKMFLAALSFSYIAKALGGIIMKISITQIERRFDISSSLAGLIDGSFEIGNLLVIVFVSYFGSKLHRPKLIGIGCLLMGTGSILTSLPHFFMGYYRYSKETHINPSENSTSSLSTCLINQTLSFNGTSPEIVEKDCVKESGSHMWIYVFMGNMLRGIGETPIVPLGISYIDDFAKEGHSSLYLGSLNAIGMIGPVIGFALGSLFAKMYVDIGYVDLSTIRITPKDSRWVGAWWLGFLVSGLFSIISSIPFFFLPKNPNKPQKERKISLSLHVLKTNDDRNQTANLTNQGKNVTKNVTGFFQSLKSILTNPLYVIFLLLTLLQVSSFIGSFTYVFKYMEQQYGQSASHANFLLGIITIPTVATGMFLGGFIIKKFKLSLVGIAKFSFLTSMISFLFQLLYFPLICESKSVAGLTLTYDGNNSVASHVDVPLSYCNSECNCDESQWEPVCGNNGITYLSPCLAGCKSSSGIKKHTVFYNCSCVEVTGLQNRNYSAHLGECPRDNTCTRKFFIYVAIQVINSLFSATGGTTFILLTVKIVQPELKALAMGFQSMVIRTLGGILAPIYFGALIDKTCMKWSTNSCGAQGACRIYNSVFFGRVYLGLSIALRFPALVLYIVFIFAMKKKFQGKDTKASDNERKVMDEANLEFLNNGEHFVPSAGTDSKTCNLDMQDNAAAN

Row | Structure (SMILES) | residual activity [1] | residual activity [2]
1 | CN[C@H]1C[C@@H](N)[C@H](O)[C@@H](O[C@@H]2O[C@H](CO)[C@H](O)[C@H]3O[C@@]4(O[C@H]23)O[C@H]([C@H](N)CO)[C@H](O)[C@H](O)[C@H]4O)[C@@H]1O | 103.7% | 91.81%
2 | CCOC(=O)OC(C)OC(=O)[C@@H]1N2C(=O)[C@@H](NC(=O)[C@H](N)c3ccccc3)[C@H]2SC1(C)C.Cl (some centres not stated) [BACAMPICILLIN HYDROCHLORIDE] | 46.45% | 80.61%
3 | C=CCC1(C(C)CCC)C(=O)N=C([S-])NC1=O.[Na+] (configuration not stated) [THIAMYLAL SODIUM] | 84.73% | 103.8%
4 | CCC(=O)Nc1ccc(Cl)c(Cl)c1 [PROPANIL] | 92.07% | 115.2%
5 | COc1ccc(-c2cc(=O)c3c(O)cc(O)c(-c4cc(-c5cc(=O)c6c(O)cc(O)cc6o5)ccc4OC)c3o2)cc1 [ISOGINKGETIN] | 36.16% | 63.51%
6 | C#CCN(C)Cc1ccccc1.Cl [PARGYLINE HYDROCHLORIDE] | 99.32% | 133.9%
7 | CC(=O)O[C@@H]1C[C@H]2C(C)(C)CCC(=O)[C@]2(C)[C@H]2CC[C@@]3(C)[C@H](c4ccoc4)OC(=O)[C@H]4O[C@]43[C@@]21C | 67% | 105.3%
8 | COc1ccc2c(c1)OC1(O)COc3cc(OC)c(OC)cc3C1=C2 (configuration not stated) [12a-HYDROXY-5-DEOXYDEHYDROMUNDUSERONE] | 102.5% | 119.6%
9 | CC(=O)O[C@H]1CC[C@@]2(C)[C@@H](CC[C@@H]3[C@@H]2CC[C@]2(C)[C@@H]4[C@H](C[C@@H]32)O[C@@]2(CCC(C)CO2)[C@H]4C)C1 (some centres not stated) | 112.3% | 107.6%
10 | CCCC(C(=O)OCCN(CC)CC)(c1ccccc1)c1ccccc1.Cl [PROADIFEN HYDROCHLORIDE] | 36.21% | 53.55%
11 | Cc1c(O)c(C(=O)CC(C)C)c2oc3c(C(=O)CC(C)C)c(O)c(C)c(O)c3c2c1O [RHODOMYRTOXIN] | 31.12% | 66.23%
12 | O=C(Cn1ccnc1[N+](=O)[O-])NCCO [ETANIDAZOLE] | 72.81% | 76.09%
13 | Cc1cc(-c2ccccc2)nnc1NCCN1CCOCC1.Cl | 73.96% | 96.66%
14 | CCCCCCCC/C=C/CCCCCCCCOP(=O)([O-])OCC[N+](C)(C)C [ELAIDYLPHOSPHOCHOLINE] | 66.64% | 84.98%
15 | CC1CCC(NC(=O)N(CCCl)N=O)CC1 (configuration not stated) [SEMUSTINE] | 101.5% | 100.5%
16 | CC(=O)OCC(=O)[C@@]1(O)[C@H](C)C[C@H]2[C@@H]3CCC4=CC(=O)C=C[C@]4(C)[C@@]3(F)[C@@H](O)C[C@@]21C [DEXAMETHASONE ACETATE] | 106% | 88.69%
17 | COC(=O)[C@@H]1OC(=O)[C@H]2O[C@]23[C@]2(C)[C@H](O)C[C@H]4C(C)(C)[C@H](OC(C)=O)C[C@H](OC(C)=O)[C@]4(C)[C@H]2CC[C@@]13C | 70.09% | 83.24%
18 | CN(C)CC[C@@H](c1ccc(Cl)cc1)c1ccccn1.O=C(O)/C=C\C(=O)O [DEXCHLORPHENIRAMINE MALEATE] | 117.7% | 103.6%
19 | CCN(CC)CCOC(=O)C(c1ccccc1)c1ccccc1.Cl [ADIPHENINE HYDROCHLORIDE] | 59.48% | 95.82%
20 | C[C@H](CCC(=O)O)[C@H]1CC[C@H]2[C@@H]3[C@@H](O)C[C@@H]4C[C@H](O)CC[C@]4(C)[C@H]3CC[C@]12C [URSODIOL] | 70.93% | 149.7%
21 | CN(Cc1cc(Br)cc(Br)c1N)C1CCCCC1.Cl [BROMHEXINE HYDROCHLORIDE] | 103.1% | 95.98%

Row | Structure (SMILES) | residual activity [1] | residual activity [2]
22 | COc1ccc(-c2c(O)c3c(OC)c4c(cc3oc2=O)OC(C)(C)CC4)cc1 [DIHYDROROBUSTIC ACID] | 73.61% | 70.94%
23 | CC(CCc1ccc(O)cc1)NCCc1ccc(O)c(O)c1.Cl (configuration not stated) [DOBUTAMINE HYDROCHLORIDE] | 91.62% | 105.8%
24 | CC[C@H](c1ccc(O)cc1)[C@@H](CC)c1ccc(O)cc1 [HEXESTROL] | 46.62% | 43.21%
25 | CCC(C(N)=O)c1ccccc1 (configuration not stated) [FENBUTYRAMIDE] | 101.6% | 100.4%
26 | COc1c2c(cc3occ(-c4ccc5c(c4)OCO5)c(=O)c13)OC(C)(C)C=C2 [METHYL ROBUSTONE] | 133% | 107.5%
27 | NC(=O)NC(=O)Cc1ccccc1 [PHENACEMIDE] | 93.72% | 104.7%
28 | CC(=O)O[C@]1(C(C)=O)CC[C@H]2[C@@H]3C=C(C)C4=CC(=O)CC[C@]4(C)[C@H]3CC[C@@]21C [MEGESTROL ACETATE] | 50.69% | 93.03%
29 | CC(=O)OCC(=O)[C@@]1(O)[C@H](OC(C)=O)C[C@H]2[C@@H]3CCC4=CC(=O)C=C[C@]4(C)[C@@]3(F)[C@@H](O)C[C@@]21C [TRIAMCINOLONE DIACETATE] | 98.08% | 104.9%
30 | COc1cc(OC)c2c(c1Cl)O[C@@]1(C(=O)CC(=O)C[C@H]1C)C2=O | 81.69% | 85.63%
31 | COc1ccc(-c2coc3c(OC)c(OC)cc(O)c3c2=O)cc1 [ISOTECTORIGENIN, 7-METHYL ETHER] | 135.9% | 105%
32 | NC(=O)NCC(N)C(=O)O (configuration not stated) [ALBIZZIINE] | 118.1% | 110.8%
33 | Cc1c(N(C)CS(=O)(=O)[O-])c(=O)n(-c2ccccc2)n1C.[Na+] [DIPYRONE SODIUM] | 72.95% | 89.51%
34 | C=CC(C1=CC(=O)C(OC)=CC1=O)c1ccc(O)cc1 (configuration not stated) [DALBERGIONE, 4-METHOXY-4'-HYDROXY-] | 114.1% | 246.6%
35 | O=C(OCc1ccccc1)c1ccccc1 [BENZYL BENZOATE] | 125.1% | 74.09%
36 | Cc1cc(O)c2c(c1)C(=O)c1cc(O)cc(O)c1C2=O [EMODIN] | 135% | 119.5%
37 | CC1=CC2C(C(C)C)CC[C@@](C)(O)C2CC1 (some centres not stated) | 80.24% | 88.94%
38 | CC(=O)OCC(=O)[C@@]1(O)CC[C@H]2[C@@H]3CCC4=CC(=O)CC[C@]4(C)[C@H]3[C@@H](O)C[C@@]21C [HYDROCORTISONE ACETATE] | 93.94% | 91.1%
39 | C[C@]12CC[C@@H](OS(=O)(=O)[O-])C[C@@H]1CC[C@@H]1[C@@H]2CC[C@]2(C)C(=O)CC[C@@H]12.[Na+] | 27.84% | 40.78%
40 | Cn1c([N+](=O)[O-])cnc1COC(N)=O [RONIDAZOLE] | 103.6% | 88.05%
41 | CC[N+]1(C)CCCC(OC(=O)C(O)(c2ccccc2)c2ccccc2)C1.[Br-] (configuration not stated) [PIPENZOLATE BROMIDE] | 70.99% | 86.01%

Reference: ChEMBL document CHEMBL3039007, “Structure-based identification of OATP1B1/3 inhibitors” (Mol Pharmacol, 2013)
